# Data: patent US9765069B2, “Antimicrobial compounds” (OXFORD UNIVERSITY INNOVATION LIMITED, priority 2012, dated 2017)
# Assays:
# [1] = system: S1; test: MIC determination (bacteria), strain S1; format: cell-based, S. aureus; settings: 2-fold broth dilution
# Experimental: (§1) MIC determination (bacteria); MICs were determined based on Clinical and Laboratory Standards Institute (CLSI) methodology (Methods for dilution antimicrobial susceptibility tests for bacteria that grow aerobically; Approved Standard—seventh edition. 2006, M7-A7, CLSI, Wayne Pa.) by a 2-fold broth dilution technique in Mueller Hinton (pH7.4 Biorad). For S. pneumoniae, the medium was supplemented with 2.5% laked horse blood. For H. influenzae, the medium was haemophilus test medium (H.T.M.). Overnight cultures were diluted to obtain the final inoculum of 10^5 cfu/well. Incubation was 37° C. overnight in ambient air. The MIC was defined as the lowest concentration which inhibited all visual growth and expressed in μg/ml. For each bacterial species, all of the molecules were tested in the same experiment in order to give a head-to-head comparison.
# [2] = system: S26; test: MIC determination (bacteria), strain S26; format: cell-based, S. aureus; settings: 2-fold broth dilution
# Experimental: as §1
# [3] = system: S4; test: MIC determination (bacteria), strain S4; format: cell-based, S. aureus; settings: 2-fold broth dilution
# Experimental: as §1
# [4] = system: S2 (S. aureus 2, MRSA in vivo); test: MIC determination (bacteria), strain S2; format: cell-based; settings: 2-fold broth dilution
# Experimental: as §1
# [5] = system: E1; test: MIC determination (bacteria), strain E1; format: cell-based, enterococcus; settings: 2-fold broth dilution
# Experimental: as §1
# [6] = system: E2; test: MIC determination (bacteria), strain E2; format: cell-based, enterococcus; settings: 2-fold broth dilution
# Experimental: as §1
# [7] = system: P1; test: MIC determination (bacteria), strain P1; format: cell-based, S. pneumoniae; settings: 2-fold broth dilution
# Experimental: as §1
# [8] = system: P9; test: MIC determination (bacteria), strain P9; format: cell-based, S. pneumoniae; settings: 2-fold broth dilution
# Experimental: as §1
# [9] = system: P9B; test: MIC determination (bacteria), strain P9B; format: cell-based, S. pneumoniae; settings: 2-fold broth dilution
# Experimental: as §1
# [10] = system: H3; test: MIC determination (bacteria), strain H3; format: cell-based, H. influenzae; settings: haemophilus test medium
# Experimental: as §1
# [11] = system: H4; test: MIC determination (bacteria), strain H4; format: cell-based, H. influenzae; settings: haemophilus test medium
# Experimental: as §1
# [12] = molecular target: E. Coli RNAP (Escherichia coli, UniProt P0A8T7+P0A8V2); test: In vitro activity against E. Coli RNAP; format: biochemical
# Description: (§2) These properties can be determined according to techniques that are well known in the art.
# [13] = system: S. aureus membrane; test: In vitro activity in depolarization of S. aureus membrane; format: cell-based; settings: read-out: DEP (IC50)
# Description: as §2
# [14] = system: mammalian_red blood cell membrane; test: In vitro mammalian red blood cell membrane lysis activity; format: cell-based; settings: Active or inactive at 100 μM
# Description: as §2
# [15] = system: human embryonic kidney 293 cells; test: in vitro toxicities against human embryonic kidney 293 cells; format: cell-based; settings: human embryonic kidney 293 cells
# Description: as §2
# [16] = system: human peripheral blood cells; test: in vitro toxicities human peripheral blood cells; format: cell-based; settings: human peripheral blood cells
# Description: as §2
# [17] = aqueous solubility at pH 7.4; format: physicochemical; settings: aqueous solubility at pH 7.4 (water with 2% DMSO)
# Description: as §2
# Sequence of E. Coli RNAP (P0A8V2 whole entry): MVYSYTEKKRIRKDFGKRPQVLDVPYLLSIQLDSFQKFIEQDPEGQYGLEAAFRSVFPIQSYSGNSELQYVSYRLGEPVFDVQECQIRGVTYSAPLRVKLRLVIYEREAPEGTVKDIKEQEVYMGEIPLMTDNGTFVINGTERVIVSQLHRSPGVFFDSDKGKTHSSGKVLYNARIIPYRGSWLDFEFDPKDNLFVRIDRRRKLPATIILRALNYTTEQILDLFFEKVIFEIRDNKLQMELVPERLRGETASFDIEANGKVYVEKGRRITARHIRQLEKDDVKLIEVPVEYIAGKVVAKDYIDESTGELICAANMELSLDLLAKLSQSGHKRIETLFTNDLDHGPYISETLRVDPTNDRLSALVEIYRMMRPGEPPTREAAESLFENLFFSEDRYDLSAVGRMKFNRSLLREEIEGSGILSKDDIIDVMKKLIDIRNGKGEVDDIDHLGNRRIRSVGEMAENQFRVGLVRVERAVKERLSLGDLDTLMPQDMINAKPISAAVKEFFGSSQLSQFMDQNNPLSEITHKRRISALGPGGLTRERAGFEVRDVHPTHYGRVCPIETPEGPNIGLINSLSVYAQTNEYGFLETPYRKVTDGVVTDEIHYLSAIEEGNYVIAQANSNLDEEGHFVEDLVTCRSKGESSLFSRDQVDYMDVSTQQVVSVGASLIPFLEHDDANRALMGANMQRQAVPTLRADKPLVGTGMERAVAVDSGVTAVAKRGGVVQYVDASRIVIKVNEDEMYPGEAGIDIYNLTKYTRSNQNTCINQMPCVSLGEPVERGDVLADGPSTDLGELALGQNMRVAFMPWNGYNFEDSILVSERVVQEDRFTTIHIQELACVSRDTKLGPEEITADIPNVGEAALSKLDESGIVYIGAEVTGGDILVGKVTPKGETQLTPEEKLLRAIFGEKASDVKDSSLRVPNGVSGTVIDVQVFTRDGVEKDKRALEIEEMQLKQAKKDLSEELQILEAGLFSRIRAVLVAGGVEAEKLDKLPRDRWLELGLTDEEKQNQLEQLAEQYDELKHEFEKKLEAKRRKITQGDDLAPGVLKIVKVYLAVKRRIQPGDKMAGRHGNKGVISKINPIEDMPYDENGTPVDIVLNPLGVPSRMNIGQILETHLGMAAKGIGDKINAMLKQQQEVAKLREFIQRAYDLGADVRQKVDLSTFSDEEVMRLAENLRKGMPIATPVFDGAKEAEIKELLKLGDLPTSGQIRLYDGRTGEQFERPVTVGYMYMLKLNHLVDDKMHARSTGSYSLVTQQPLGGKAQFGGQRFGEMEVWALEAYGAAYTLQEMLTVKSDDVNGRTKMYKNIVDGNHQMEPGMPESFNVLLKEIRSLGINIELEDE
# Sequence of E. Coli RNAP (P0A8T7 whole entry): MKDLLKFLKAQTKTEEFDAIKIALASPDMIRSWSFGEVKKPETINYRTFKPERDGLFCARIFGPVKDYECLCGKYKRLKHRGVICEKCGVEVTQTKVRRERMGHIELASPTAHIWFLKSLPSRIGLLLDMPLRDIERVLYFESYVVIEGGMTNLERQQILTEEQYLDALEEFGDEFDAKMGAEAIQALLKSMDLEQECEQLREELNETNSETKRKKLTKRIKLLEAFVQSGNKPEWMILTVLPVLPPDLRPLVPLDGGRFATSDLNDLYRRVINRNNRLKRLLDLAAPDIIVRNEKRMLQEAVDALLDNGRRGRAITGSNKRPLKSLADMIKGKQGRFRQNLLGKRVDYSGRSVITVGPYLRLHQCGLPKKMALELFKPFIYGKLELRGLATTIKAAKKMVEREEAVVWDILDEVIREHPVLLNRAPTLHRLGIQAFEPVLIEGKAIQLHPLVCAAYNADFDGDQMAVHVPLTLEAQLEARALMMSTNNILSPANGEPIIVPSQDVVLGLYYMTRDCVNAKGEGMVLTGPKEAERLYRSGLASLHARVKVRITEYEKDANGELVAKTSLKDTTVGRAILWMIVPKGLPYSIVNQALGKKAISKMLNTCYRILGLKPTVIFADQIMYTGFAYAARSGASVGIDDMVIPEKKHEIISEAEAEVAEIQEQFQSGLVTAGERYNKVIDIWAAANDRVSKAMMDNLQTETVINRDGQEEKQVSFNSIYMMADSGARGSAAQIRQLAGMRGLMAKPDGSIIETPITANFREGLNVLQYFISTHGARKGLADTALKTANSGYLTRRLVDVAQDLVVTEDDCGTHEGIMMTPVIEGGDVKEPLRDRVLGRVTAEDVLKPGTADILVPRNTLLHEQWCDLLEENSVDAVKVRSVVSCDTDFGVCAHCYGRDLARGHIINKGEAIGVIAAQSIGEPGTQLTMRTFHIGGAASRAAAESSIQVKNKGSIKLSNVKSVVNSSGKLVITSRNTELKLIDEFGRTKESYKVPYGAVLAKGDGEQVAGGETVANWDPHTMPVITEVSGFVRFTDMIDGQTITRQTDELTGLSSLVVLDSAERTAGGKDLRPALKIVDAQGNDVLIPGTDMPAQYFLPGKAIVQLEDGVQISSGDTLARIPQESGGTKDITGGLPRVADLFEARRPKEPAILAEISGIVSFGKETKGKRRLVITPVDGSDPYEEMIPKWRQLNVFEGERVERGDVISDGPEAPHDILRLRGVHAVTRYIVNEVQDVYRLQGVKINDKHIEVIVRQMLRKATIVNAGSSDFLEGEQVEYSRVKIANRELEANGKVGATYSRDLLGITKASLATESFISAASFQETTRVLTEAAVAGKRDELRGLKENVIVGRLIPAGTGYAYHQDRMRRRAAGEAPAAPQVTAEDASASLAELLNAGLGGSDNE
# Sequence of E. Coli RNAP (P0A7Z4 whole entry partner): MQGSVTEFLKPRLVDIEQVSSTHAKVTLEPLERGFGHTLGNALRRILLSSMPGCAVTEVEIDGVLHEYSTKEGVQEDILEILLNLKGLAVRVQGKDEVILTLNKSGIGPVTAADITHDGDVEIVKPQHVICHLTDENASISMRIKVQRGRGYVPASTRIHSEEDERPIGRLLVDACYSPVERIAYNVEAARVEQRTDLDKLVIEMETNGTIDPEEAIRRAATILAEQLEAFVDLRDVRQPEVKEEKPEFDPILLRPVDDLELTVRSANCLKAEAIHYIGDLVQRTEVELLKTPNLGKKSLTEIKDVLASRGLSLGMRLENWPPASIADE
# Sequence of E. Coli RNAP (P0A800 whole entry partner): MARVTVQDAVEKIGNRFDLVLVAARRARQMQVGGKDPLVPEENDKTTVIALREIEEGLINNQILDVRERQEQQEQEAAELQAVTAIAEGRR
SMILES,MIC S1 ([1]; Table 1) [µg/mL],MIC S26 ([2]; Table 1) [µg/mL],MIC S4 ([3]; Table 1) [µg/mL],IC50 [12] [µM],IC50 [13] [µM],RBC membrane lysis activity (active/inactive) [14],"Hek293 (LD50, μM) [15] [µM]","PMBC (LD50, μM) [16] [µM]",SOL [17] [µM],MIC S1 ([1]; Table 2) [µg/mL],MIC S26 ([2]; Table 2) [µg/mL],MIC S4 ([3]; Table 2) [µg/mL],MIC S2 ([4]; Table 2) [µg/mL],MIC E1 ([5]; Table 2) [µg/mL],MIC E2 ([6]; Table 2) [µg/mL],MIC P1 ([7]; Table 2) [µg/mL],MIC P9 ([8]; Table 2) [µg/mL],MIC P9B ([9]; Table 2) [µg/mL],MIC H3 ([10]; Table 2) [µg/mL],MIC H4 ([11]; Table 2 and its footnote f) [µg/mL],also measured
CCCCCCCCCC(O)=C1C(=O)CCN(C(=O)c2ccccc2)C1=O [25a],2,4,2,> 100,83.6,Inactive^d,>90.9,>90.9,>300,–,–,–,–,–,–,–,–,–,–,–,MIC S2 ([4]; Table 1): 4 µg/mL; MIC E1 ([5]; Table 1): 2 µg/mL; MIC E2 ([6]; Table 1): 4 µg/mL; MIC P1 ([7]; Table 1): 0.5 µg/mL; MIC P9 ([8]; Table 1): 0.5 µg/mL; MIC P9B ([9]; Table 1): 4 µg/mL; MIC H3 ([10]; Table 1): 16 µg/mL; MIC H4 ([11]; Table 1): 8 µg/mL
CCCCCCCCCCCC(O)=C1C(=O)CCN(C(=O)c2ccccc2)C1=O [25b],0.5,1,0.5,86,94.4,Inactive^d,>90.9,>90.9,>300,–,–,–,–,–,–,–,–,–,–,–,MIC S2 ([4]; Table 1): 0.5 µg/mL; MIC E1 ([5]; Table 1): 0.25 µg/mL; MIC E2 ([6]; Table 1): 0.5 µg/mL; MIC P1 ([7]; Table 1): 0.25 µg/mL; MIC P9 ([8]; Table 1): 0.25 µg/mL; MIC P9B ([9]; Table 1): 1 µg/mL; MIC H3 ([10]; Table 1): 8 µg/mL; MIC H4 ([11]; Table 1): 4 µg/mL
CCCCCCCCCC(O)=C1C(=O)CCN(C(=O)c2ccc(OC)cc2)C1=O [25d],8,8,4,–,69,Active,90.9,90.9,150 to 300,–,–,–,–,–,–,–,–,–,–,–,MIC S2 ([4]; Table 1): 4 µg/mL; MIC E1 ([5]; Table 1): 4 µg/mL; MIC E2 ([6]; Table 1): 4 µg/mL; MIC P1 ([7]; Table 1): 2 µg/mL; MIC P9 ([8]; Table 1): 2 µg/mL; MIC P9B ([9]; Table 1): 8 µg/mL; MIC H3 ([10]; Table 1): 64 µg/mL; MIC H4 ([11]; Table 1): 8 µg/mL
CCCCCCC(=O)N1CC(=O)C(=C(O)CCCC2CCCCC2)C1=O [27c],–,–,–,> 100,> 100,–,30.3,90.9,>200,0.25,1,0.5,1,0.5,0.12,0.12,<0.06,2,2,1,–
CCCCCCC(=O)N1CC(=O)C(=C(O)CC(C)CC(C)(C)C)C1=O (centres unmarked) [27h],–,–,–,> 100,–,–,30.3,90.9,150 to 300,0.25,0.5,0.5,0.5,0.25,0.25,<0.06,<0.06,1,2,2,–
CCCCCCC(=O)N1CC(=O)C(=C(O)CCCOc2ccc(Cl)cc2C)C1=O [28h],–,–,–,33,–,–,30.3,90.9,>300,1,4,4,2,0.5,0.5,0.5,0.5,4,8,4,–
CC(C)CC1C(=O)C(=C(O)CCCCCc2ccccc2)C(=O)N1C(=O)c1ccccc1 (centres unmarked) [30a],–,–,–,–,> 100,Inactive^d,>90.9,90.9,>300,2,4,2,2,2,2,1,1,4,>64,8,–
"CNC(=O)[C@@H](C)[C@H]1C(=O)/C(=C(O)/C=C/C(C)=C/[C@@H](C)[C@H]2O[C@@]3(C)O[C@H](C=C[C@@]34CO4)[C@@H]2C)C(=O)N1[C@@H]1CC[C@H](O)[C@H](C)O1 [streptolydigin, reference compound]",–,–,–,38,–,–,–,–,–,–,–,–,–,–,–,–,–,–,–,–,–
